Assay results as given in PubChem BioAssay (NCI).
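Test compounds were applied to cells in 96-well plates for 48 hours at 5 doses. GI50 marks 50% less growth. At the TGI there is no net growth.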

Tests used:
Test in all cases: NCI tumour cell line growth inhibition, 48 h
RPMI-8226 leukemia = tested on: RPMI-8226 leukemia
KM12 colon = tested on: KM12 colon
NCI-H23 lung = tested on: NCI-H23 lung
SNB-19 CNS = tested on: SNB-19 CNS
HCT-15 colon = tested on: HCT-15 colon
MDA-N = tested on: MDA-N
ACHN renal = tested on: ACHN renal
RXF 393 renal = tested on: RXF 393 renal
MCF7 breast = tested on: MCF7 breast
OVCAR-8 ovarian = tested on: OVCAR-8 ovarian

Row | Structure (SMILES) | TGI (RPMI-8226 leukemia) | TGI (KM12 colon) | TGI (NCI-H23 lung) | TGI (SNB-19 CNS) | TGI (HCT-15 colon) | TGI (MDA-N) | TGI (ACHN renal) | TGI (RXF 393 renal) | TGI (MCF7 breast) | TGI (OVCAR-8 ovarian) | GI50 (MDA-N)
1 | O=C(N/N=C(\c1ccccc1)c1ccccn1)NC1CCCCC1 | > 100 µM | > 100 µM | > 100 µM | > 100 µM | > 100 µM | > 100 µM | > 100 µM |  |  |  | 
2 | Cc1ccc(-c2c(C#N)c(-c3ccc(C)cc3)n(NS(=O)(=O)c3ccccc3)c(=O)c2C#N)cc1 | 38.8 µM | > 100 µM |  | > 100 µM | > 100 µM |  | > 100 µM | > 100 µM | > 100 µM | > 100 µM | 
3 | C=CCCON(C(=O)OC(C)(C)C)C(C)(C)C | > 100 µM | > 100 µM | > 100 µM | > 100 µM | > 100 µM | > 100 µM | > 100 µM | > 100 µM |  | > 100 µM | 
4 | c1ccc(N=C(N2CCCC2)N(CCN2CCCC2)c2ccccc2)cc1 | > 100 µM | 41.7 µM | > 100 µM | > 100 µM | > 100 µM |  | > 100 µM |  | > 100 µM | > 100 µM | 
5 | CC1(C)[C@@H](Cn2ccc(=O)[nH]c2=O)CC[C@@]1(C)CO |  | > 100 µM |  | > 100 µM | > 100 µM | > 100 µM | > 100 µM | > 100 µM |  |  | 
6 | CCOC(=O)CCC(NC(=O)Cc1ccc(Nc2nc3cc(F)c(F)cc3nc2C(=O)OCC)cc1)C(=O)OCC (stereo unspecified) |  | > 100 µM | > 100 µM | > 100 µM | > 100 µM | > 100 µM | > 100 µM |  | > 100 µM | > 100 µM | 
7 | COc1cc(Nc2nc3ccccc3nc2C(=O)O)cc(OC)c1OC | > 100 µM | > 100 µM | > 100 µM | > 100 µM | > 100 µM | > 100 µM | > 100 µM | > 100 µM |  | > 100 µM | 
8 | Cn1c(=O)c2c(ncn2CCNC(CO)C(O)c2ccc([N+](=O)[O-])cc2)n(C)c1=O (stereo unspecified) | > 100 µM | > 100 µM | > 100 µM | > 100 µM | > 100 µM | > 100 µM | > 100 µM |  | > 100 µM | > 100 µM | 
9 | CO/N=C(\C)c1ccc(Nc2nc3ccccc3c3occc23)cc1 | 43.4 µM | 36.4 µM | 28.9 µM | 31.2 µM | 30.5 µM | 28.7 µM | 27.6 µM |  | 31 µM | 33.9 µM | 
10 | O=C1c2ccccc2C(=O)c2c(NCC(O)CO)ccc(NCC(O)CO)c21 (stereo unspecified) | > 100 µM |  | > 100 µM | > 100 µM | > 100 µM | > 100 µM | > 100 µM |  | > 100 µM | > 100 µM | 
11 | CO[C@@]12C[C@@H](C)C3=CCC(C)=C3CC1=C(C)C(=O)O2 | > 100 µM | > 100 µM | > 100 µM | > 100 µM | > 100 µM |  | > 100 µM |  |  | > 100 µM | 
12 | NC(N)=NCCN1CC2CCC(CC2)C1 | > 100 µM | > 100 µM | > 100 µM | > 100 µM | > 100 µM | > 100 µM | > 100 µM | > 100 µM |  | > 100 µM | 
13 | CC1(C)/C(=N\NC(N)=O)C2CCC1C2 (stereo unspecified) | > 100 µM | > 100 µM | > 100 µM | > 100 µM | > 100 µM | > 100 µM | > 100 µM |  | > 100 µM | > 100 µM | 
14 | Cc1ccc(-n2cnc(C(=N)C#N)c2N)cc1 | > 100 µM | > 100 µM | > 100 µM | > 100 µM | > 100 µM | > 100 µM | > 100 µM |  | > 100 µM | > 100 µM | 
15 | CCOC(=O)Nc1[nH]cc(-c2ccccc2)c1C#N | > 100 µM | > 100 µM | > 100 µM | > 100 µM | > 100 µM | > 100 µM | > 100 µM |  | > 100 µM | > 100 µM | 
16 | COc1cc(C2C3C=CC=C4CC=CC(=C43)C3CCC(=O)N32)cc(OC)c1OC (stereo unspecified) | > 100 µM | > 100 µM |  | > 100 µM | > 100 µM |  | > 100 µM |  | > 100 µM | > 100 µM | 
17 | CC(=O)Nc1ccc(N=Nc2c(O)c(S(=O)(=O)O)cc3cc(S(=O)(=O)O)ccc23)cc1 | > 100 µM | > 100 µM | > 100 µM | > 100 µM | > 100 µM | > 100 µM | > 100 µM | > 100 µM |  | > 100 µM | 
18 | Cc1ccnc2[nH]c(-c3ccc4ccccc4c3)cc(=O)c12 | 8.05 µM | 20.6 µM | 15.3 µM | 31 µM | 10.8 µM | 0.448 µM | 13.6 µM |  | 3.91 µM | 14 µM | 0.206 µM
19 | COc1cc2c(cc1OC)C(CC1=C(c3ccccc3)CN3CCc4cc(OC)c(OC)cc4C3C1)NCC2 (stereo unspecified) | 28.8 µM | 39.1 µM | 52.8 µM | 38.8 µM | 36.1 µM |  | 42.3 µM | 17.6 µM |  | 36.8 µM | 
20 | COc1cccc(CCNC(=O)Cc2ccccc2CCO)c1 |  | > 100 µM | > 100 µM | > 100 µM | > 100 µM |  | > 100 µM | > 100 µM | > 100 µM | > 100 µM | 
